From US10556907B2 (AbbVie Inc., priority 2015, dated 2020) come the findings set out here.

Each structure is given as a SMILES string. Some results are limits rather than exact numbers.

Common to all, as to assay: Method 1: intracellular Ca2+ release (FLIPR, Calcium 5) in recombinant CHO-K1 cells
Type in all cases: cell-based

For one experiment, the target named is T1, human S1PR3 receptor (Homo sapiens, UniProt Q99500).
T1 construct: host or cells: CHO-K1
The note with it: (1): determined with method 1; read-out: S1P3 EC50. In short, it runs like this:
(§1)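 Read-out: FLIPR Tetra fluorescence of Calcium 5-loaded CHO-K1 cells (receptor + aequorin + Gq/i5) after agonist addition at RT. Values are EC50s from nonlinear fits normalized to the phospho-fingolimod reference curve. Buffer HBSS with Ca2+/Mg2+, Hepes, probenecid, 0.1% BSA, pH 7.4.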

A further experiment addresses T2, human S1PR4 receptor (Homo sapiens, UniProt O95977).
T2 construct: host or cells: CHO-K1
T2 sequence (O95977 1-384): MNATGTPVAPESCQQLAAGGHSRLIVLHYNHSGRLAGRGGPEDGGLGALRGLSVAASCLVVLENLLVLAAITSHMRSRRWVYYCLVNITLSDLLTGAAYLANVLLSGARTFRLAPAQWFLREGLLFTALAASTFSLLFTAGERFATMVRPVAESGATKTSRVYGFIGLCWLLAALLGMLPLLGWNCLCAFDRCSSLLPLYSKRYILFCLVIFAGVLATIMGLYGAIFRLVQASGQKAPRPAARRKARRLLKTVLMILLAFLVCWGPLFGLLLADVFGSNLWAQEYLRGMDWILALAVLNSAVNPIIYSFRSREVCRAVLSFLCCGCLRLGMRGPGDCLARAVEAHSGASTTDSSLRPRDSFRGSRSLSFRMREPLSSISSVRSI
The following applies: (1): determined with method 1; read-out: S1P4 EC50. Put shortly:
as §1

The next experiment addresses T3, human S1PR1 receptor (Homo sapiens, UniProt P21453).
T3 construct: host or cells: CHO-K1
The note with it: (1): determined with method 1; read-out: S1P1 EC50. Put shortly:
as §1

The next experiment concerns the target T4, human S1PR5 receptor (Homo sapiens, UniProt Q9H228).
T4 construct: host or cells: CHO-K1
The note with it: agonist potency, determined with method 1 (symbols A-D); read-out: S1P5 EC50 range. Put shortly:
as §1

T1 sequence (Q99500 whole entry): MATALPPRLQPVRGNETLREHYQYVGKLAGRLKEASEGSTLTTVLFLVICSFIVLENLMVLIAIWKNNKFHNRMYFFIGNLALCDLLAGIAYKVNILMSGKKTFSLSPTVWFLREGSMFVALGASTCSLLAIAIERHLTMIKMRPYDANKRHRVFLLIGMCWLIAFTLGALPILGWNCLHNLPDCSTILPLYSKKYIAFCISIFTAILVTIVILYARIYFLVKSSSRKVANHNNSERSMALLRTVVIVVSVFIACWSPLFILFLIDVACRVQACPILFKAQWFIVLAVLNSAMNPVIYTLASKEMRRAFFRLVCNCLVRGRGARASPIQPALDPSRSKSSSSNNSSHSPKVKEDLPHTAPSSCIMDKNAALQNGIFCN
T4 sequence (Q9H228 whole entry): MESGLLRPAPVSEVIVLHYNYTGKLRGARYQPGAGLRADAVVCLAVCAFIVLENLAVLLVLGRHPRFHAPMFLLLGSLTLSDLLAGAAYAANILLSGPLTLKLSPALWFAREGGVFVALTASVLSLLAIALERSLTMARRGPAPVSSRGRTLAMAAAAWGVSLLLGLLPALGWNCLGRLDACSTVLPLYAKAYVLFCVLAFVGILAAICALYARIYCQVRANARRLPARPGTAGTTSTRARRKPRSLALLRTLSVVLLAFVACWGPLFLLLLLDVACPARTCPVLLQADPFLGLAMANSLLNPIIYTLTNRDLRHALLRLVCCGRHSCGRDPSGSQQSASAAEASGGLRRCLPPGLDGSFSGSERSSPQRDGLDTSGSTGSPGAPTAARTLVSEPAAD
T3 sequence (P21453 whole entry): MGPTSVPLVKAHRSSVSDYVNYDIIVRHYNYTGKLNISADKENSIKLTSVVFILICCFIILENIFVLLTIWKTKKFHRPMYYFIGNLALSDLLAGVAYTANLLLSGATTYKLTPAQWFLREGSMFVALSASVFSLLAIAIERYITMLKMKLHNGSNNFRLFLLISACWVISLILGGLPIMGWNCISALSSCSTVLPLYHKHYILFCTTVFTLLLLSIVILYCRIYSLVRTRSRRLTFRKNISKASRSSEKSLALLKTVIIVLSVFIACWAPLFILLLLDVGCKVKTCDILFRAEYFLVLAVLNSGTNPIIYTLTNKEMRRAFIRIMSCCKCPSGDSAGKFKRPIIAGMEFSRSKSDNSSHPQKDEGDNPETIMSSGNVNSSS

The EC50 is the midpoint of the concentration-response curve. Consider `Cc1ccccc1C#Cc1ncc2c(n1)CCN(C1CC(C(=O)O)C1)C2` (stereo not shown) [Compound 55, 3-(2-(o-tolylethynyl)-7,8-dihydropyrido[4,3-d]pyrimidin-6(5H)-yl)cyclobutanecarboxylic acid], for which the concentration for a half-maximal effect (EC50) was more than 1000 nM on human S1PR3 receptor, more than 1000 nM at human S1PR4 receptor, more than 1000 nM on human S1PR1 receptor and 1000 to 10000 nM at human S1PR5 receptor.
As for `O=C(O)C1CC(N2CCc3nc(C#Cc4ccc(F)cc4)ccc3C2)C1` (stereo not shown) [Compound 123, 3-(2-((4-fluorophenyl)ethynyl)-7,8-dihydro-1,6-naphthyridin-6(5H)-yl)cyclobutanecarboxylic acid], the concentration for a half-maximal effect (EC50) on human S1PR3 receptor is more than 1000 nM; at human S1PR4 receptor, more than 1000 nM; at human S1PR1 receptor, more than 1000 nM; at human S1PR5 receptor it was 1000 to 10000 nM.
In the case of `O=C(O)CCCN1CCc2nc(Cc3c(F)cccc3F)ncc2C1` [Compound 51, 4-(2-(2,6-difluorobenzyl)-7,8-dihydropyrido[4,3-d]pyrimidin-6(5H)-yl)butanoic acid], the concentration giving a half-maximal response (EC50) on human S1PR3 receptor was more than 1000 nM; on human S1PR4 receptor, more than 1000 nM; on human S1PR1 receptor, more than 1000 nM; at human S1PR5 receptor, 1000 to 10000 nM.
For the compound `O=C(O)CCN1CCc2nc(-c3ccc(OCc4ccccc4OC(F)(F)F)cc3)ccc2C1` [Compound 155, 3-(2-(4-((2-trifluoromethoxybenzyl)oxy)phenyl)-7,8-dihydro-1,6-naphthyridin-6(5H)-yl)propanoic acid], the concentration giving a half-maximal response (EC50) was more than 1000 nM on human S1PR3 receptor, more than 1000 nM at human S1PR4 receptor, more than 1000 nM on human S1PR1 receptor and less than 10 nM on human S1PR5 receptor.
As to `O=C(O)CCN1CCc2nc(-c3ccc(OCc4c(Cl)cccc4Cl)cc3)c(F)cc2C1` [Compound 192, 3-(2-(4-((2,6-dichlorobenzyl)oxy)phenyl)-3-fluoro-7,8-dihydro-1,6-naphthyridin-6(5H)-yl)propanoic acid], the half-maximal effective concentration (EC50) on human S1PR3 receptor is more than 1000 nM; at human S1PR4 receptor, more than 1000 nM; on human S1PR1 receptor, more than 1000 nM; at human S1PR5 receptor it was less than 10 nM.
In the case of `Cc1ccccc1COc1ccc(-c2ncc3c(n2)CCN(C[C@@H](C)CC(=O)O)C3)cc1C` [Compound 249], the concentration giving a half-maximal response (EC50) on human S1PR3 receptor is more than 1000 nM; at human S1PR4 receptor it was more than 1000 nM; at human S1PR1 receptor, more than 1000 nM; at human S1PR5 receptor it was less than 10 nM.
For `CC(CN1CCc2nc(-c3ccc(OCc4ccc(Cl)c(Cl)c4)cc3)ncc2C1)C(=O)O` (stereo not shown) [Compound 14, 3-(2-(4-((3,4-dichlorobenzyl)oxy)phenyl)-7,8-dihydropyrido[4,3-d]pyrimidin-6(5H)-yl)-2-methylpropanoic acid], the concentration for a half-maximal effect (EC50) is more than 1000 nM at human S1PR3 receptor, more than 1000 nM at human S1PR4 receptor, more than 1000 nM at human S1PR1 receptor and less than 10 nM at human S1PR5 receptor.
For the compound `CC(CN1CCc2nc(-c3ccc(OCc4cccc(F)c4)cc3)ncc2C1)C(=O)O` (stereo not shown) [Compound 8, 3-(2-(4-((3-fluorobenzyl)oxy)phenyl)-7,8-dihydropyrido[4,3-d]pyrimidin-6(5H)-yl)-2-methylpropanoic acid], the EC50 is more than 1000 nM at human S1PR3 receptor, more than 1000 nM at human S1PR4 receptor, more than 1000 nM on human S1PR1 receptor and less than 10 nM at human S1PR5 receptor.
As to `O=C(O)CCN1CCc2nc(-c3ccc(OCc4ccc(Cl)cc4)cc3)ncc2C1` [Compound 74, 3-(2-(4-((4-chlorobenzyl)oxy)phenyl)-7,8-dihydropyrido[4,3-d]pyrimidin-6(5H)-yl)propanoic acid], the EC50 is more than 1000 nM on human S1PR3 receptor, more than 1000 nM at human S1PR4 receptor, more than 1000 nM at human S1PR1 receptor and less than 10 nM on human S1PR5 receptor.
As for `O=C(O)CC1(CN2CCc3nc(-c4ccc(OCc5ccc(Cl)cc5)cc4)ncc3C2)CC1` [Compound 281, 2-((4(2-(4-((4-chlorobenzyl)oxy)phenyl)-7,8-dihydropyrido[4,3-d]pyrimidin-6(5H)-yl)methyl)cyclopropyl)acetic acid], the half-maximal effective concentration (EC50) at human S1PR3 receptor is more than 1000 nM; on human S1PR4 receptor, more than 1000 nM; on human S1PR1 receptor it was more than 1000 nM; at human S1PR5 receptor, 10 to 100 nM.
